Measured values reported in US5589568A (priority 1994, dated 1996).
Like-named read-outs stand apart in the source and are kept apart here. Where a SMILES comes first, the peptide text is derived from it. Where no end group is shown, it is not given here. The star is where a group is joined. Dodecyl = CCCCCCCCCCCC*

Legend:
Go = target: T1, Go (Bos taurus, UniProt P08239); experiment: steady state GTPase activity of Go in phospholipid vesicles; type: biochemical, bovine
T1 construct: proteins were extracted from bovine cerebral cortical membranes; from tissue; host or cells: bovine brain (cerebral cortical membranes)
T1 sequence (P08239 2-354 limits assumed): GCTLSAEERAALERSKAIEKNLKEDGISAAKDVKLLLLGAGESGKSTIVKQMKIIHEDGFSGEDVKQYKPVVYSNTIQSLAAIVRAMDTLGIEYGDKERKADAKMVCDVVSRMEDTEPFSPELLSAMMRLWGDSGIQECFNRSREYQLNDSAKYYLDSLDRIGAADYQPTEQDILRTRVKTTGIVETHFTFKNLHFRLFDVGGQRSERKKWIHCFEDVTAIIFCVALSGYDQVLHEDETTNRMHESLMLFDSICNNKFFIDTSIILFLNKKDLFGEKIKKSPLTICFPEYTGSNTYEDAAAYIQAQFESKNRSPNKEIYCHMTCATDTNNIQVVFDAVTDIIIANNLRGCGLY
T1 sequence (P62871 2-340 partner limits assumed): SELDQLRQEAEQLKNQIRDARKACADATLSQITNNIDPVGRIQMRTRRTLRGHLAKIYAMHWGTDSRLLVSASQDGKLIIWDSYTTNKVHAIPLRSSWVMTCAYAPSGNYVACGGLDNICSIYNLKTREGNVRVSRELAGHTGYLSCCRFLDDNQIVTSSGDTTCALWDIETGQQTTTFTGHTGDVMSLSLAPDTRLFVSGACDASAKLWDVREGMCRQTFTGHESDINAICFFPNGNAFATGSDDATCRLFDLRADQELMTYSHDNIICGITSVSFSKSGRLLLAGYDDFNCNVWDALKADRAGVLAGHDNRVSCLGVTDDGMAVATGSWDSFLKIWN
T1 sequence (P63212 2-68 partner limits assumed): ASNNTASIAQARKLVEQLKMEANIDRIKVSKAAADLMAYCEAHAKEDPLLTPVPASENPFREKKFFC
Description: G proteins were reconstituted into phospholipid vesicles composed of dioleoyl-PC/bovine brain PS/1-palmitoyl,2-oleoyl-PE (3:4:3) as reported previously by Higashijima et al., 1988, incorporated herein by reference.

Gs = Gs (Homo sapiens, UniProt P63092); experiment: steady state GTPase activity of Gs; type: biochemical; conditions: read-out: Gs af. (apparent affinity, estimated by EC50 of GTPase activity)
Gs, sequence (P63092 whole entry): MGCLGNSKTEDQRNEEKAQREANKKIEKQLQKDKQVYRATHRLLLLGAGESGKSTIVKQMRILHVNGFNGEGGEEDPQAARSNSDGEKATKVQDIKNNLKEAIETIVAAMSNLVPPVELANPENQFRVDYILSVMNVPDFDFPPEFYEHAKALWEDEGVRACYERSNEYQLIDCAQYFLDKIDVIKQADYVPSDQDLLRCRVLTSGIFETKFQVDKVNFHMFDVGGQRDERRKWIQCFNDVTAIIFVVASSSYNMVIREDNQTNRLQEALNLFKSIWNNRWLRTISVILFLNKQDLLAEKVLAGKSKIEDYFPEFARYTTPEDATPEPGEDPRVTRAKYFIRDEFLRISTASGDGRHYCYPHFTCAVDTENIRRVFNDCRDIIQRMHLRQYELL
Description: Methods for the assay of steady state GTP hydrolysis and GTPγS binding have been described previously by Higashijima, 1987, and Ferguson, 1986, and incorporated herein by reference. Unless noted otherwise, assays of steady state GTP hydrolysis and of the binding and dissociation of guanine nucleotides were carried out in the buffer described previously, but without detergent and with 1.1 mM MgSO4 and the nucleotide specified in the text. When necessary, the concentration of free Mg^2+ was adjusted using EDTA buffers as described previously by Higashijima, 1987, and incorporated herein by reference.
The data set forth in the following tables represent data generated by the inventors employing the steady state GTP hydrolysis, expressed as molar turnover numbers, are described herein under the "Assay" section of the Experimental Procedures in Example 1. The data has been classified according to the criteria outlined below and the effects of each peptide and modified variant on Go, Gi, and Gs have been tabulated. Table III below sets forth data generated for various mastoparan analogues designed by the inventors, in comparison with the various naturally-occurring mastoparans (e.g., MP, MP-A and MP-T). Table IV sets forth similar data generated for various receptor-based peptides designed by the inventors based on a consideration of various G-protein linked receptors.
Apparent affinity (af.) and apparent efficacy (ef.) were estimated by EC50 and maximum turnover number of GTPase activity.

[1] = Table VI, receptor-based peptides

Compound	EC50 (Go) [µM]	EC50 (Gs; Table IV) [µM]	EC50 (Gs; [1]) [µM]
INLRALAALARALL-NH2 [ER7]	< 3	3 to 10	–
INAKALAALAKKLL-NH2 [MAS21]	10 to 30	10 to 30	–
REHKALKTLGIIC-NH2 [ER40]	> 100	–	30 to 100
CVYREAKEQIRKIL-NH2 [ER19]	> 100	–	> 100
CVYVVAKRESRGLKIL-NH2 [ER47]	30 to 100	–	> 100
IVYREAKEQIRKIL-NH2 [ER23]	30 to 100	–	30 to 100
INLKAIAAFAKKLL-NH2 [MP-T, reference compound]	3 to 10	10 to 30	–
INLKALAALARKLL-NH2 [MAS10]	3 to 10	3 to 10	–
IQLKALAALAKALL-NH2 [ER12]	3 to 10	3 to 10	–
INLKALAALAKALL-NH2 [ER1]	3 to 10	3 to 10	–
INLKALAALAKRLL-NH2 [MAS08]	3 to 10	3 to 10	–
INLKALAAKAKKLL-NH2 [MAS13]	30 to 100	3 to 10	–
CC[C@H](C)[C@H](N)C(=O)N[C@@H](CC(N)=O)C(=O)N[C@@H](CC(C)C)C(=O)N[C@@H](CCCCN)C(=O)N[C@@H](C)C(=O)N[C@@H](CC(C)C)C(=O)N[C@@H](C)C(=O)N[C@@H](C)C(=O)N[C@@H](CC(C)C)C(=O)N[C@@H](C)C(=O)N[C@@H](CCCCN)C(=O)N[C@@H](CCCCN)C(=O)N[C@@H](C)C(=O)N[C@@H](CC(C)C)C(N)=O [MAS05, INLKALAALAKKAL]	10 to 30	10 to 30	–
INLKALAALAAALL-NH2 [ER5]	3 to 10	3 to 10	–
CPLSYRAKRTPRRAALM-NH2 [ER38]	3 to 10	–	30 to 100
ILLKALAALAKALL-NH2 [ER21]	3 to 10	3 to 10	–
INLKAFAALAKKLL-NH2 [MAS23]	10 to 30	3 to 10	–
INLRALAALAKALL-NH2 [ER6]	< 3	3 to 10	–
CC[C@H](C)[C@H](N)C(=O)N[C@@H](CC(N)=O)C(=O)N[C@@H](CC(C)C)C(=O)N[C@@H](CCCCN)C(=O)N[C@@H](C)C(=O)N[C@@H](CC(C)C)C(=O)N[C@@H](C)C(=O)N[C@@H](C)C(=O)N[C@@H](CC(C)C)C(=O)N[C@@H](C)C(=O)N[C@@H](CCCCN)C(=O)N[C@@H](CCCCN)C(=O)N[C@@H](CCCCN)C(=O)N[C@@H](CC(C)C)C(N)=O [MAS06]	30 to 100	30 to 100	–
INLRALAALRRRLL-NH2 [ER28]	< 3	3 to 10	–
INYKALCALAKKIL-NH2 [ER15]	30 to 100	10 to 30	–

Compound	EC50 (Go) [µM]	EC50 (Gs; Table IV) [µM]	EC50 (Gs; [1]) [µM]
CCCCCCCCCCCCSC[C@H](NC(=O)[C@@H](NC(=O)[C@@H](NC(=O)CNC(=O)[C@H](CC(C)C)NC(=O)[C@@H](NC(=O)[C@H](CCCCN)NC(=O)[C@H](CC(C)C)NC(=O)[C@H](C)NC(=O)[C@H](CCCCN)NC(=O)[C@H](Cc1c[nH]cn1)NC(=O)[C@H](CCC(=O)O)NC(=O)[C@@H](N)CCCNC(=N)N)[C@@H](C)O)[C@@H](C)CC)[C@@H](C)CC)C(N)=O [C12-ER40] (H-REHKALKTLGIIC(Dodecyl)-NH2)	3 to 10	–	3 to 10
INLQALAALAKALL-NH2 [ER8]	3 to 10	3 to 10	–
INLKALAALAKKLA-NH2 [MAS04]	3 to 10	3 to 10	–
INWRAWRAWARAWL-NH2 [ER27]	< 3	3 to 10	–
CVYREAKEQIRKIDR-NH2 [ER43]	> 100	–	> 100
INLKALAALKKKLL-NH2 [MAS11]	10 to 30	3 to 10	–
CC[C@H](C)[C@H](N)C(=O)N[C@@H](CC(N)=O)C(=O)N[C@@H](CC(C)C)C(=O)N[C@@H](CCCCN)C(=O)N[C@@H](C)C(=O)N[C@@H](CC(C)C)C(=O)N[C@@H](C)C(=O)N[C@@H](C)C(=O)N[C@@H](CC(C)C)C(=O)N[C@@H](C)C(=O)N[C@@H](CCCCN)C(=O)N[C@@H](CCCCN)C(=O)N[C@@H](CC(C)C)C(=O)N[C@@H](CC(C)C)C(N)=O [MAS03]	3 to 10	10 to 30	–
INLKALAALARALL-NH2 [ER2]	< 3	3 to 10	–
INYKALAACAKKIL-NH2 [ER14]	3 to 10	3 to 10	–
INLKALKALAKKLL-NH2 [MAS15]	10 to 30	3 to 10	–
IVYREAKEQIRKIDRVL-NH2 [ER22]	30 to 100	–	30 to 100
CIYRETENRARELAALQGSET-NH2 [ER32]	> 100	–	> 100
CNYKALAALAKALL-NH2 [ER16]	3 to 10	10 to 30	–
CVYIVAKRTTKNLEAGVMKEIL-NH2 [ER34]	30 to 100	–	30 to 100
CVFQVAKRQLQKIDKVL-NH2 [ER36]	10 to 30	–	30 to 100
INLAALAALAKALL-NH2 [ER4]	3 to 10	3 to 10	–
CISRASKSRIKKDKKEPVAIL-NH2 [ER44]	< 3	–	30 to 100
INLKALAALAQALL-NH2 [ER3]	10 to 30	3 to 10	–
INLKALAAAAKKLL-NH2 [MAS12]	10 to 30	3 to 10	–
CC[C@H](C)[C@H](N)C(=O)N[C@@H](CC(N)=O)C(=O)N[C@@H](Cc1ccc(O)cc1)C(=O)N[C@@H](CCCCN)C(=O)N[C@@H](C)C(=O)N[C@@H](CC(C)C)C(=O)N[C@@H](C)C(=O)N[C@@H](C)C(=O)N[C@@H](CC(C)C)C(=O)N[C@@H](C)C(=O)N[C@@H](CCCCN)C(=O)N[C@@H](CCCCN)C(=O)N[C@H](C(=O)N[C@@H](CC(C)C)C(N)=O)[C@@H](C)CC [ER13]	3 to 10	3 to 10	–
INLKALAALAAKLL-NH2 [Mas9]	3 to 10	30 to 100	–

Compound	EC50 (Go) [µM]	EC50 (Gs; Table IV) [µM]	EC50 (Gs; [1]) [µM]
INLKAAAALAKKLL-NH2 [MAS16]	10 to 30	3 to 10	–
CISRASKSRIKKDKKIL-NH2 [ER45]	< 3	–	3 to 10
CVYVVAKRESRGLKSGLKTDIL-NH2 [ER46]	30 to 100	–	> 100
INLRALAALAKKLL-NH2 [MAS20]	3 to 10	3 to 10	–
IKWKAILDAVKKVL-NH2 [MP-A, reference compound]	3 to 10	3 to 10	–
INLQALKALAKALL-NH2 [ER11]	3 to 10	3 to 10	–
INLKAKAALAKKLL-NH2 [Mas17]	30 to 100	3 to 10	–
CVYREAKEQIRKIDRVL-NH2 [ER18]	30 to 100	–	> 100
INLRALRALARALL-NH2 [ER24]	< 3	3 to 10	–
INLAALAALAKKLL-NH2 [Mas19]	3 to 10	3 to 10	–
INFKALAALAKKLL-NH2 [MAS22]	10 to 30	3 to 10	–
CLLKALAALAKALL-NH2 [ER30]	3 to 10	3 to 10	–
CVYIVAKRTTKNLEIL-NH2 [ER35]	10 to 30	–	> 100
INLKALAKLAKKLL-NH2 [MAS14]	10 to 30	3 to 10	–
INLKKLAALAKKLL-NH2 [MAS18]	10 to 30	3 to 10	–
INLKALKALAKALL-NH2 [ER10]	< 3	3 to 10	–
CIYRETENRARELAALQGSETIL-NH2 [ER33]	> 100	–	> 100
INLQALAALAQALL-NH2 [ER9]	30 to 100	10 to 30	–
INLKALAALAKNLL-NH2 [ER20]	3 to 10	10 to 30	–
